Values after ≈ are worked out from the molar mass of the structure shown.
Columns and labels:
G+ve = assay: Summary of in vitro activity (MIC) against G+ve bacteria; assay type: cell-based
Summary of the method: (§1)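 Twofold dilutions of DMSO-dissolved compound in Mueller Hinton agar; spots of 10^4 CFU; 18 h growth. Endpoint: no-growth concentration.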

S. pneum AB 34 = assay: MIC, agar incorporation method; assay type: cell-based, Streptococcus pneumoniae; details: S. pneum AB 34; agar incorporation
Summary of the method: as §1

S. pneumoniae = assay: Summary of in vitro activity (MIC) against S. pneumoniae; assay type: cell-based, Streptococcus pneumoniae; details: S. pneumoniae
Summary of the method: as §1

S. pyogenes 19615 = assay: MIC, agar incorporation method; assay type: cell-based, Streptococcus pyogenes; details: S. pyogenes 19615; agar incorporation
Summary of the method: (§2)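 Compounds in DMSO were added as doubling dilutions to molten Mueller Hinton agar. Spots of 10^4 CFU, diluted from a 0.5 McFarland suspension (1.5×10^8 CFU/ml), were incubated 18 hours (24 hours for MRSN studies). MIC (μg/ml) is the lowest concentration with no visible growth.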

E. faecalis = assay: Summary of in vitro activity (MIC) against E. faecalis; assay type: cell-based, Enterococcus faecalis; details: E. faecalis
Summary of the method: as §1

MRSA 562 [1] = assay: MIC, agar incorporation method; assay type: cell-based, Staphylococcus aureus; details: MRSA 562
Summary of the method: as §1

MRSA 33 = assay: MIC, agar incorporation method; assay type: cell-based, Staphylococcus aureus; details: MRSA 33; agar incorporation
Summary of the method: as §1

MRSA 562 [2] = assay: In vivo activity against MRSA 562 (ED50); set-up: species or system Staphylococcus aureus
[3] = Changes in MIC under different conditions: Broth MIC; assay type: cell-based; details: strain not given
[4] = Changes in MIC under different conditions: Agar MIC; assay type: cell-based; details: strain not given
Protocol: The compounds of the invention display antibacterial activity when tested by the agar incorporation method. The following minimum inhibitory concentrations (μg/ml) were obtained for representative compounds of the invention which are given below in the following tables.
Briefly, the compounds were dissolved in DMSO and doubling dilution of the compounds were incorporated into Meuller Hilton agar before solidification. Inoculum was prepared by suspending 4 to 5 colonies into 5 ml of normal saline solution and adjusting the turbidity to 0.5 Macfarland turbidity standard tables (1.5×10^8 CFU/ml), after appropriate dilutions, 10^4 CFU/spot was transfered into the surface of dried plate and incubated for 18 hours (24 hours for MRSN studies). The concentration showing no growth of the inoculated culture was recorded as the MIC. Appropriate ATCC standard strains were simultaneously tested and result recorded only when the MIC's against standard antibiotics were within the acceptable range.

S. aureus = assay: Summary of in vitro activity (MIC) against S. aureus; assay type: cell-based, Staphylococcus aureus; details: S. aureus
Summary of the method: as §1

VRE 6A = assay: MIC, agar incorporation method; assay type: cell-based, Enterococcus faecium; details: VRE 6A; agar incorporation
Summary of the method: as §2

E. faecalis 29212 = assay: MIC, agar incorporation method; assay type: cell-based, Enterococcus faecalis; details: E. faecalis 29212; agar incorporation
Summary of the method: as §2

S. pneum 6303 = assay: MIC, agar incorporation method; assay type: cell-based, Streptococcus pneumoniae; details: S. pneum 6303; agar incorporation
Summary of the method: as §2

MRSA 15187 = assay: MIC, agar incorporation method; assay type: cell-based, Staphylococcus aureus; details: MRSA 15187; agar incorporation
Summary of the method: as §2

S. aureus 25923 = assay: MIC, agar incorporation method; assay type: cell-based, Staphylococcus aureus; details: S. aureus 25923; agar incorporation
Summary of the method: as §2

## CC(=O)NC[C@H]1CN(c2ccc(N3CCC(N(C)C(=O)c4ccc([N+](=O)[O-])o4)CC3)c(F)c2)C(=O)O1 [Compound No. 44]
G+ve; G+ve, Number 49
  MIC50: 0.5 µg/mL (≈ 0.993 µM)
  MIC90: 2 µg/mL (≈ 3.97 µM)
G+ve; Gram +ve
  Geometric Mean of in vitro activity (MIC): 0.31 µg/mL
S. pneum AB 34
  MIC: 2 µg/mL (≈ 3.97 µM)
S. pneumoniae
  Geometric Mean of in vitro activity (MIC): 0.96 µg/mL
S. pneumoniae; Number 19
  MIC50: 1 µg/mL (≈ 1.99 µM)
  MIC90: 2 µg/mL (≈ 3.97 µM)
S. pyogenes 19615
  MIC: 0.5 µg/mL (≈ 0.993 µM)
E. faecalis
  Geometric Mean of in vitro activity (MIC): 0.11 µg/mL
E. faecalis; Number 7
  MIC50: 0.064 µg/mL (≈ 0.127 µM)
  MIC90: 0.25 µg/mL (≈ 0.497 µM)
MRSA 562 [1]; Table 5
  MIC: <0.1 µg/mL
MRSA 562 [1]; agar incorporation, Table 1
  MIC: <0.1 µg/mL
MRSA 33
  MIC: <0.1 µg/mL
MRSA 562 [2]
  ED50 (mg/kg body weight) PO: >25 mg/kg body weight
[3]; +50% Sheep serum
  Broth MIC +50% Sheep serum: 0.25 µg/mL
[3]; Normal MH broth
  Broth MIC Normal MH broth: <0.1 µg/mL
[4]
  Agar MIC: <0.1 µg/mL
S. aureus
  Geometric Mean of in vitro activity (MIC): 0.11 µg/mL
S. aureus; Number 8
  MIC50: 0.064 µg/mL (≈ 0.127 µM)
  MIC90: 0.25 µg/mL (≈ 0.497 µM)
VRE 6A
  MIC: <0.1 µg/mL
E. faecalis 29212
  MIC: 0.25 µg/mL (≈ 0.497 µM)
S. pneum 6303
  MIC: 2 µg/mL (≈ 3.97 µM)
MRSA 15187
  MIC: <0.1 µg/mL
S. aureus 25923
  MIC: 0.25 µg/mL (≈ 0.497 µM)
